# Experimental data: patent publication US20240246934A1, “QUINAZOLINE-BASED COMPOUND, COMPOSITION, AND APPLICATION OF QUINAZOLINE-BASED COMPOUND” (BEIJING SCITECH-MQ PHARMACEUTICALS LIMITED, priority 2021, published 2024)
# Key:
# HER2 kinase = biological target: T1, HER2 kinase (Homo sapiens, UniProt P04626); assay: HER2 kinase assay (ULight/PT66 TR-FRET); format: biochemical
# T1 construct: purchased Carna Biosciences 08-016
# Protocol: (§1) Preparation of compound solution: The assay compound was dissolved in DMSO to form a 10 mM stock solution. Prior to use, the compound was diluted to 0.25 mM in DMSO (100 times the final concentration of the diluent) and then subjected to a 3-fold concentration gradient dilution to obtain a total of 11 concentrations. The solution was diluted with buffer to a diluent with 4× the final concentration when the compound was added.
# (§2) HER2 kinase assay: buffer was prepared, and 40 nM 4×Her2 kinase solution, 40 μM 4×ATP solution, and 400 nM 4×ULight™-labeled Ploy GT Peptide substrate solution were prepared using the buffer. After the preparation was completed, the enzyme was mixed with different concentrations of compounds pre-prepared by dilution, and the mixture was left to stand at room temperature for 5 min. Each concentration was performed in duplicate. The corresponding substrate and ATP were added and the mixture was reacted at room temperature for 120 minutes (with negative and positive controls). After completion of the reaction, PT66 detection antibody was added. The mixture was incubated at room temperature for 60 minutes, and then detected by Envision.
# (§3) Compound concentrations and corresponding inhibition rates were input into GraphPad Prism for processing to calculate IC50 values.
# EGFR^WT kinase = EGFR^WT kinase (Homo sapiens, UniProt P00533); assay: EGFR^WT kinase assay (ULight/PT66 TR-FRET); format: biochemical
# EGFR^WT kinase, sequence (P00533 25-1210): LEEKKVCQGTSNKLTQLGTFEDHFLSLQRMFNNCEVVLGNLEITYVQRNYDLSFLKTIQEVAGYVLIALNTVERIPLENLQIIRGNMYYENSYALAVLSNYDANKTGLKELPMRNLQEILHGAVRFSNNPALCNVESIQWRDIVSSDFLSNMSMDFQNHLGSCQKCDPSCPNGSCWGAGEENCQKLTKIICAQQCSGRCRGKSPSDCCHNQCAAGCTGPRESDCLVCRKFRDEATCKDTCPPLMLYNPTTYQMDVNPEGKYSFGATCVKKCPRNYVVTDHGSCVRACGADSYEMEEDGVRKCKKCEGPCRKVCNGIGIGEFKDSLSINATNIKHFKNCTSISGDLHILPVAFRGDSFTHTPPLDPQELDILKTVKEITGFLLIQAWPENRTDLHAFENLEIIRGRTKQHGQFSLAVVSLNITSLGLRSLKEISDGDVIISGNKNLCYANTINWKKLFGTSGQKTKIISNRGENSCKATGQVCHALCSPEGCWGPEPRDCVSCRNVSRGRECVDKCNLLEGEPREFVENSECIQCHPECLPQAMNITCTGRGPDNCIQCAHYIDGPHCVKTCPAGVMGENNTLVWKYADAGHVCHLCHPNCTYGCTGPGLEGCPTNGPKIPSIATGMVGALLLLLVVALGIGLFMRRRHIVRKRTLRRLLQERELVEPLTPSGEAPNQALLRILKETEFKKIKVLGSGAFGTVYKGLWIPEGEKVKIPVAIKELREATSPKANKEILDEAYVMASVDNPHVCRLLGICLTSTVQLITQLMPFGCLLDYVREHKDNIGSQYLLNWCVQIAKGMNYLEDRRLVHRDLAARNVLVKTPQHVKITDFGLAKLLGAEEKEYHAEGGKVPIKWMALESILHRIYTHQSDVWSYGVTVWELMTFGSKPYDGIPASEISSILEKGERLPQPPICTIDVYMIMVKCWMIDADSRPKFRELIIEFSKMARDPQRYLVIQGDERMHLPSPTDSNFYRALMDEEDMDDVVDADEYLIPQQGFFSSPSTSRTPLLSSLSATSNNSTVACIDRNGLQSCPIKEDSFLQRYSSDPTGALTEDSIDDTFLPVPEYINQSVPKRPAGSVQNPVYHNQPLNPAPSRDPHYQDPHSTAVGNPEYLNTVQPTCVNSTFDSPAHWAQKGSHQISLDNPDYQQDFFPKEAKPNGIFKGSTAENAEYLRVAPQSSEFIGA
# Protocol: as §1
# as §2, with “EGFR^WT kinase assay:” for “HER2 kinase assay:”, “prepared, and 3.48 nM 4×EGFR” for “prepared, and 40 nM 4×Her2”, “3.48 nM 4×EGFR kinase solution,” for “40 nM 4×Her2 kinase solution,”, “kinase solution, 600 μM 4×ATP” for “kinase solution, 40 μM 4×ATP”, “nM 4×ULight™-labeled JAK-1 (Try1023) Peptide substrate” for “nM 4×ULight™-labeled Ploy GT Peptide substrate”
# as §3
# [1] = biological target: Ba/F3 HER2 A775_G776insYVMA cells (Homo sapiens, UniProt P04626, DUP772-775, cells depend on it); assay: Inhibition of cell proliferation, CTG method, Ba/F3 HER2 A775_G776insYVMA; format: cell-based; settings: 72 hours, read-out: Ba/F3 HER2 A775-G776insYVMA IC50
# Ba/F3 HER2 A775_G776insYVMA cells, sequence (P04626 with tags, fused parts or gaps DUP772-775): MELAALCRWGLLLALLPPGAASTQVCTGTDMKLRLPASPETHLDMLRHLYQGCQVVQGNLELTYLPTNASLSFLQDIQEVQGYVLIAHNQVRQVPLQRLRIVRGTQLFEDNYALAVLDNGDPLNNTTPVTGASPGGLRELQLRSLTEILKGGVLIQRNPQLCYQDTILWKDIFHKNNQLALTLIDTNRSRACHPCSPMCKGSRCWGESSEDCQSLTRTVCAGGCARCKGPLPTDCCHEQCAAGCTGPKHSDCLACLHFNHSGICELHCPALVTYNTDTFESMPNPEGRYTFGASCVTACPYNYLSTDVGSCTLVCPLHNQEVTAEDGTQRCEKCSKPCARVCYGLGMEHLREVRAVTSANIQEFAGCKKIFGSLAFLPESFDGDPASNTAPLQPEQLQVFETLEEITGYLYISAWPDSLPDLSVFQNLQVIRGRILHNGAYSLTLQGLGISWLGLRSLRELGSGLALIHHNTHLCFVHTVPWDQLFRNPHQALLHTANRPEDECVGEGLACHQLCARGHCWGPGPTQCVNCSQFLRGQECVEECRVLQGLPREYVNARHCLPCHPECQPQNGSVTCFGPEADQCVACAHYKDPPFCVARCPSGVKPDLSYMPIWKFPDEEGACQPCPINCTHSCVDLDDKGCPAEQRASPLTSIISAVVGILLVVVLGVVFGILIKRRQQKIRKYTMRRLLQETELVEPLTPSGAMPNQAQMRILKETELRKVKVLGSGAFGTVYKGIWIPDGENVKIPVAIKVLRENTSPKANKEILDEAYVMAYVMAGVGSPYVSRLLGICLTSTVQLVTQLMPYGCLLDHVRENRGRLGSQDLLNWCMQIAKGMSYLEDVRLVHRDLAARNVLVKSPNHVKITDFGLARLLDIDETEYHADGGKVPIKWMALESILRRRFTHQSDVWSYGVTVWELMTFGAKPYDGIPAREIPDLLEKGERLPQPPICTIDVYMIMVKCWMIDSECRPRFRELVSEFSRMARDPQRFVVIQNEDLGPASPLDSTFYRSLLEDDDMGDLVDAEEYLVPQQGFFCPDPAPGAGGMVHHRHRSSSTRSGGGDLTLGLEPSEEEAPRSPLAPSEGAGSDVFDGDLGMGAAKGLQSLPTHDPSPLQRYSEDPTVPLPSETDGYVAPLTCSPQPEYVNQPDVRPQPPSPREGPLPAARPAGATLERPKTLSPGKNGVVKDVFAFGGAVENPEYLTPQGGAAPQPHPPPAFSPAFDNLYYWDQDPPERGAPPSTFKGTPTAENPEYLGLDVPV
# Excerpt: The present application examined the in vitro anti-proliferative activity of the compounds of the present disclosure against in vitro cultured BT474, NCI-N87, Ba/F3-EGFR-VIII and Ba/F3 HER2 A775_G776insYVMA and Ba/F3 EGFR D770_N771insSVD cell lines by CTG method.
# Cell lines: BT474 (from the cell bank of Chinese Academy of Sciences), NCI-N87 (from ATCC), Ba/F3-EGFR-VIII, Ba/F3 HER2 A775_G776insYVMA and Ba/F3 EGFR D770_N771insSVD (all from KYinno Biotechnology (Beijing) Co., Ltd.); all of the above cells were cultured with RPMI1640 medium containing 10% fetal bovine serum, 100 U/mL penicillin, and 100 μg/mL streptomycin in the culture process.
# 1. The assay compound was dissolved with DMSO to form a stock solution and a gradient dilution was performed, followed by dilution with the corresponding medium to obtain a solution with 5-fold working concentration.
# 2. Cells in logarithmic growth phase were adjusted to specific cell densities by dilution with culture medium, and 80 μL of cell suspension was added to a 96-well plate, such that plating densities of cells of BT474, NCI-N87, Ba/F3-EGFR-VIII, Ba/F3 HER2 A775_G776insYVMA and Ba/F3 EGFR D770_N771insSVD were all 3000 cells/well. The cells of Ba/F3-EGFR-VIII, Ba/F3 HER2 A775_G776insYVMA and Ba/F3 EGFR D770_N771insSVD were used directly in the next step (treatment with compound), whereas the BT474 and NCI-N87 needed to be cultured overnight in a 37° C., 5% carbon dioxide gas incubator to adhere to the wall, and then treated with compounds.
# 3. […] The highest concentration of the assayed compound was 10 μM, 4-fold serial dilution, a total of 9 concentrations, and duplicate wells. A control group without compound was also set up.
# 4. The cells were cultured for another 72 hours, and then cell viability was detected by CTG assay kit. Signal values were read with a multifunctional plate reader (Perkin Elmer). GraphPad Prism software was used to create a dose-response curve and IC50 was calculated.
# [2] = Pharmacokinetics in SD rats, single intravenous injection and oral administration; format: in vivo, SD rat
# Protocol: In this assay, the pharmacokinetic characteristics of the compounds of the present application were assayed after administration of some of the compounds of the present application to SD rats by single oral administration and intravenous injection. 1. […] The mixture was stirred, vortexed and/or sonicated. Once a solution was obtained, the vehicle was gradually added to a final volume to reach the target concentration. The solution was vortexed, and sonicated to obtain a homogeneous solution. The solution was filtered through a 0.22 μm PVDF membrane. 2. […] The mixture was stirred, vortexed and/or sonicated. Once a solution was obtained, the vehicle was gradually added to a final volume to reach the target concentration. The solution was vortexed, and sonicated to obtain a homogeneous solution. […] Meanwhile, the IV group was not fasted and the PO group was fasted overnight (>12 hrs) and given food 2 hrs after drug administration. All animals had free access to water. The dosing regimen and pharmacokinetic sampling regimen are given in Table 6 and Table 7 below, respectively. […] Rats were administered according to the above regimen, and blood and brain tissue samples were collected and processed at predetermined time points (collection and processing were performed according to conventional methods in the art). […] The supernatant was diluted 2-fold with ultra-pure water, and the samples were analyzed by LC/MS. Pharmacokinetic parameters was calculated using WinNonlin software. The following pharmacokinetic parameters was calculated from the plasma drug concentration-time data: CL (clearance); Vd (apparent volume of distribution); T1/2 (elimination half-life time); Cmax (peak concentration); Tmax (time to peak); AUC (area under plasma drug concentration-time curve); MRT (mean retention time); F % (bioavailability).
# [3] = SD, rat, whole blood, IV 3 mg/kg
# T1 sequence (P04626 23-1255): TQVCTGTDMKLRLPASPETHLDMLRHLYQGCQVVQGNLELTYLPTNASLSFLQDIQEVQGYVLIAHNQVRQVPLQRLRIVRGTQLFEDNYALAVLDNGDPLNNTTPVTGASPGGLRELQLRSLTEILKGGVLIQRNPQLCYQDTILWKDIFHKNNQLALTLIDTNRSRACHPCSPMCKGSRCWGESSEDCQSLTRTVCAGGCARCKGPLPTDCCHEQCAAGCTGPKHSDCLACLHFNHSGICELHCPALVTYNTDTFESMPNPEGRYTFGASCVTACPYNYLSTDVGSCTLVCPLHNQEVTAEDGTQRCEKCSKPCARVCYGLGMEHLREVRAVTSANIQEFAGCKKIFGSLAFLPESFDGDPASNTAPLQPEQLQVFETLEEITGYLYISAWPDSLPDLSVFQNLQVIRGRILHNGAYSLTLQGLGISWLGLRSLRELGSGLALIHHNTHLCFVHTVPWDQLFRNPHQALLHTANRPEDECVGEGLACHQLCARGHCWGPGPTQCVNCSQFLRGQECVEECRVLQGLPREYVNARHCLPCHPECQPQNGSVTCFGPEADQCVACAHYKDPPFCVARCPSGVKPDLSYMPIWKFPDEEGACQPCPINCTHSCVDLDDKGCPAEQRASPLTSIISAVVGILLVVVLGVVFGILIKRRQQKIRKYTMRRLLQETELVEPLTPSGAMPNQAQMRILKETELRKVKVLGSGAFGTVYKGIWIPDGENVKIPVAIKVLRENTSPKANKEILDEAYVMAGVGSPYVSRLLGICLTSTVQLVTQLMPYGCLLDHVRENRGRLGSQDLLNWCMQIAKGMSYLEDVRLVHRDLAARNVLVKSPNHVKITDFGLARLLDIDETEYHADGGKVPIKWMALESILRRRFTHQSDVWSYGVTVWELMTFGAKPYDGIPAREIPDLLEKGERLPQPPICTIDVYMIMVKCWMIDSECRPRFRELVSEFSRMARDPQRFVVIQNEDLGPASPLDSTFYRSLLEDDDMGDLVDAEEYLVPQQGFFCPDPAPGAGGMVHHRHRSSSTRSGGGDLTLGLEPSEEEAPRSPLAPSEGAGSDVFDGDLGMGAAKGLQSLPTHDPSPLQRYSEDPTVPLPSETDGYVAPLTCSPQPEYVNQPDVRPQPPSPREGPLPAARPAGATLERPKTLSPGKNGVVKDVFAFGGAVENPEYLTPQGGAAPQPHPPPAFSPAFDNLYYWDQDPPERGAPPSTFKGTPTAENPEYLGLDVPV
SMILES,IC50 (HER2 kinase),IC50 (EGFR^WT kinase),GI50 [1],also measured
"CN1CCC[C@@H]1/C=C/C(=O)Nc1ccc2ncnc(Nc3ccc(Oc4ccccc4)cc3)c2c1OCCO [Example 31, (R,E)-N-(5-(2-hydroxyethoxy)-4-((4-phenyloxyphenyl)amino)quinazolin-6-yl)-3-(1-methylpyrrolidin-2-yl)acrylamide]",< 0.01 µM,< 0.01 µM,0.001 to 0.005 µM,
"CN1CCC[C@@H]1/C=C/C(=O)Nc1ccc2ncnc(Nc3ccc(OCc4ccccn4)c(Cl)c3)c2c1OC1CCC1 [Example 39, (R,E)-N-(4-((3-chloro-4-(pyridin-2-ylmethoxy)phenyl)amino)-5-cyclobutoxyquinazolin-6-yl)-3-(1-methylpyrrolidin-2-yl)acrylamide]",< 0.01 µM,< 0.01 µM,0.001 to 0.005 µM,
"COc1c(NC(=O)/C=C/CN2CCCC2)ccc2ncnc(Nc3ccc(OCc4ccccn4)c(Cl)c3)c12 [Example 43, (E)-N-(4-((3-chloro-4-(pyridin-2-ylmethoxy)phenyl)amino)-5-methoxyquinazolin-6-yl)-4-(pyrrolidine-1-yl)but-2-enamide]",< 0.01 µM,,,
"CN1CCC[C@@H]1/C=C/C(=O)Nc1ccc2ncnc(Nc3ccc(OCc4ccccn4)c(Cl)c3)c2c1 [Control compound 1, reference compound]",,,,"Cl_obs ([2]; IV 3 mg/kg): 72.7 ± 7.1 mL/min/kg; AUC(0-inf) [2, 3]: 693 ± 72 ng·h/mL; AUC(0-t) [2, 3]: 678 ± 74 ng·h/mL; Vd [2, 3]: 31 ± 4.6 L/kg; half-life [2, 3]: 4.91 ± 0.28 h; oral absorption (in words) ([2]; administrated orally): hardly absorbed"
"[2H]C([2H])([2H])Oc1c(NC(=O)/C=C/CN(C)C)ccc2ncnc(Nc3ccc(OCc4ccccn4)c(Cl)c3)c12 [Example 36, (E)-N-(4-((3-chloro-4-(pyridin-2-ylmethoxy)phenyl)amino)-5-(methoxy-d3)quinazolin-6-yl)-4-(dimethylamino)but-2-enamide]",< 0.01 µM,< 0.01 µM,0.001 to 0.005 µM,
"COc1cccc(COc2ccc(Nc3ncnc4ccc(NC(=O)/C=C/[C@H]5CCCN5C)c(OC)c34)cc2Cl)n1 [Example 27, (R,E)-N-(4-((3-chloro-4-((6-methoxypyridin-2-yl)methoxy)phenyl)amino)-5-methoxyquinazolin-6-yl)-3-(1-methylpyrrolidin-2-yl)acrylamide]",< 0.01 µM,0.01 to 0.1 µM,0.001 to 0.005 µM,
"COc1c(NC(=O)/C=C/CN2CCCCC2)ccc2ncnc(Nc3ccc(OCc4ccccn4)c(Cl)c3)c12 [Example 44, (E)-N-(4-((3-chloro-4-(pyridin-2-ylmethoxy)phenyl)amino)-5-methoxyquinazolin-6-yl)-4-(piperidin-1-yl)but-2-enamide]",< 0.01 µM,,,
"COc1c(NC(=O)/C=C/[C@H]2CCCN2C2CCC2)ccc2ncnc(Nc3ccc(OCc4ccccn4)c(Cl)c3)c12 [Example 42, (R,E)-N-(4-((3-chloro-4-(pyridin-2-ylmethoxy)phenyl)amino)-5-methoxyquinazolin-6-yl)-3-(1-cyclobutylpyrrolidin-2-yl)acrylamide]",< 0.01 µM,0.1 to 1 µM,,
"CN1CCC[C@@H]1/C=C/C(=O)Nc1ccc2ncnc(Nc3ccc(OCc4cccc(F)c4)c(Cl)c3)c2c1OC1CC1 [Example 41, (R,E)-N-(4-((3-chloro-4-((3-fluorobenzyl)oxy)phenyl)amino)-5-cyclopropoxyquinazolin-6-yl)-3-(1-methylpyrrolidone-2-yl)acrylamide]",< 0.01 µM,,0.001 to 0.005 µM,

# The next lines start with results.
IC50 (HER2 kinase),IC50 (EGFR^WT kinase),GI50 [1],SMILES,also measured
< 0.01 µM,< 0.01 µM,0.001 to 0.005 µM,"COc1c(NC(=O)/C=C/[C@H]2CCCN2C)ccc2ncnc(Nc3ccc(OCc4ccccn4)c(F)c3)c12 [Example 30, (R,E)-N-(4-((3-fluoro-4-(pyridin-2-ylmethoxy)phenyl)amino)-5-methoxyquinazolin-6-yl)-3-(1-methylpyrrolidin-2-yl)acrylamide]",
< 0.01 µM,< 0.01 µM,0.001 to 0.005 µM,"CCOc1c(NC(=O)/C=C/[C@H]2CCCN2CC)ccc2ncnc(Nc3ccc(OCc4cccc(F)c4)c(Cl)c3)c12 [Example 19, (R,E)-N-(4-((3-chloro-4-(3-fluorobenzyloxy)phenyl)amino)-5-ethoxyquinazolin-6-yl)-3-(1-ethylpyrrolidin-2-yl)acrylamide]",
< 0.01 µM,< 0.01 µM,0.001 to 0.005 µM,"CCOc1c(NC(=O)/C=C/[C@H]2CCCN2C)ccc2ncnc(Nc3ccc(OCc4ccccn4)c(F)c3)c12 [Example 21, (R,E)-N-(5-ethoxy-4-((3-fluoro-4-(pyridin-2-ylmethoxy)phenyl)amino)quinazolin-6-yl)-3-(1-methylpyrrolidine-2-yl)acrylamide]",
< 0.01 µM,< 0.01 µM,0.001 to 0.005 µM,"COc1c(NC(=O)/C=C/CN(C)C2CCC2)ccc2ncnc(Nc3ccc(OCc4ccccn4)c(Cl)c3)c12 [Example 3, (E)-N-(4-((3-chloro-4-(pyridin-2-ylmethoxy)phenyl)amino)-5-methoxyquinazolin-6-yl)-4-(cyclobutyl(methyl)amino)but-2-enamide]",
< 0.01 µM,< 0.01 µM,0.001 to 0.005 µM,"CCOc1c(NC(=O)/C=C/[C@H]2CCCN2C)ccc2ncnc(Nc3ccc(OCc4cccc(C)n4)c(Cl)c3)c12 [Example 22, (R,E)-N-(4-((3-chloro-4-((6-methylpyridin-2-yl)methoxy)phenyl)amino)-5-ethoxyquinazolin-6-yl)-3-(1-methylpyrrolidin-2-yl)acrylamide]",
< 0.01 µM,< 0.01 µM,0.001 to 0.005 µM,"CN1CCC[C@@H]1/C=C/C(=O)Nc1ccc2ncnc(Nc3ccc(OCc4ccccn4)c(Cl)c3)c2c1OC1CCOC1 (stereo partly drawn) [Example 40, (E)-N-(4-((3-chloro-4-(pyridin-2-ylmethoxy)phenyl)amino)-5-((tetrahydrofuran-3-yl)oxy)quinazolin-6-yl)-3-((R)-1-methylpyrrolidin-2-yl)acrylamide]",
< 0.01 µM,< 0.01 µM,0.001 to 0.005 µM,"CN1CCC[C@@H]1/C=C/C(=O)Nc1ccc2ncnc(Nc3ccc(OCc4ccccn4)c(Cl)c3)c2c1OCCC(F)(F)F [Example 12, (R,E)-N-(4-((3-chloro-4-(pyridin-2-ylmethoxy)phenyl)amino)-5-(3,3,3-trifluoropropoxy)quinazolin-6-yl)-3-(1-methylpyrrolidin-2-yl)acrylamide]",
